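Growth conditions: 96-well plates. Treatment: test compound, 48 hours, 5 concentrations. Analysis: linear interpolation between bracketing concentrations; unreached endpoints set to highest concentration. The concentration for 50% growth inhibition is given as GI50.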 Activity calls are given as the source filed them. Cut-off read from the data, not from the text of the source: active = GI50 up to about 1.1 µM and inactive = higher.
Tests used:
Assay in all cases: NCI tumour cell line growth inhibition, 48 h
NCI-H522 = tested on: NCI-H522
OVCAR-5 = tested on: OVCAR-5
Hs-578T = tested on: Hs-578T
HCC 2998 = tested on: HCC 2998
BT-549 = tested on: BT-549
UO-31 = tested on: UO-31
K562 = tested on: K562
OVCAR-8 = tested on: OVCAR-8
RPMI-8226 = tested on: RPMI-8226
U-251 = tested on: U-251
SK-MEL-2 = tested on: SK-MEL-2
EKVX = tested on: EKVX
HCT-116 = tested on: HCT-116
A549 = tested on: A549
HL-60 = tested on: HL-60
LOX IMVI = tested on: LOX IMVI
SR = tested on: SR
SNB-19 = tested on: SNB-19
TK-10 = tested on: TK-10
OVCAR-4 = tested on: OVCAR-4
NCI-H460 = tested on: NCI-H460
IGROV-1 = tested on: IGROV-1
PC-3 = tested on: PC-3
COLO 205 = tested on: COLO 205
SK-OV-3 = tested on: SK-OV-3
MDA-MB-231 = tested on: MDA-MB-231
MDA-MB-435 = tested on: MDA-MB-435
HCT-15 = tested on: HCT-15
786-0 = tested on: 786-0
Malme-3M = tested on: Malme-3M
RXF 393 = tested on: RXF 393
UACC-257 = tested on: UACC-257
SK-MEL-28 = tested on: SK-MEL-28
MCF7 = tested on: MCF7
OVCAR-3 = tested on: OVCAR-3
SF-295 = tested on: SF-295
SW-620 = tested on: SW-620
MOLT-4 = tested on: MOLT-4
M14 = tested on: M14
HOP-62 = tested on: HOP-62
CAKI-1 = tested on: CAKI-1
MDA-N = tested on: MDA-N
SN12C = tested on: SN12C
UACC-62 = tested on: UACC-62
SF-268 = tested on: SF-268
ACHN = tested on: ACHN
KM12 = tested on: KM12
HOP-92 = tested on: HOP-92
NCI-H226 = tested on: NCI-H226
HT-29 = tested on: HT-29
A498 = tested on: A498
CCRF-CEM = tested on: CCRF-CEM
DU-145 = tested on: DU-145
NCI-H23 = tested on: NCI-H23
SF-539 = tested on: SF-539
NCI/ADR-RES = tested on: NCI/ADR-RES
SK-MEL-5 = tested on: SK-MEL-5
SNB-75 = tested on: SNB-75
T47D = tested on: T47D

Measured: GI50

COC1/C=C/C(C)C(C(C)C(OC)C(C)CCC(=O)C(C)C(C/C=C/N(C)C=O)OC)OC(=O)C=CC2OC2(C)CC(OC)C(OC)C2=CC(=O)O[C@@H](C(C)C(OC)CC(OC)/C=C/C(C)C(O)C1)[C@H]2O (stereo partly drawn)
0.00631 µM: HCT-15
active: NCI-H522 0.00369 µM | OVCAR-5 0.0105 µM | Hs-578T 0.00448 µM | HCC 2998 0.00569 µM | BT-549 0.0214 µM | UO-31 0.00308 µM | K562 0.00277 µM | OVCAR-8 0.00853 µM | RPMI-8226 0.00841 µM | U-251 0.0146 µM | SK-MEL-2 0.0175 µM | EKVX 0.00562 µM | HCT-116 0.000528 µM | A549 0.00349 µM | HL-60 0.0109 µM | LOX IMVI 0.002 µM | SR 0.012 µM | SNB-19 0.0121 µM | TK-10 0.0119 µM | OVCAR-4 0.0208 µM | NCI-H460 0.00607 µM | IGROV-1 0.00106 µM | PC-3 0.00609 µM | COLO 205 0.0016 µM | SK-OV-3 0.0205 µM | MDA-MB-231 0.0032 µM | MDA-MB-435 0.0137 µM | 786-0 0.00451 µM | Malme-3M 0.00673 µM | RXF 393 0.0139 µM | UACC-257 0.0105 µM | SK-MEL-28 0.00869 µM | MCF7 0.00627 µM | OVCAR-3 0.0108 µM | SF-295 0.00775 µM | SW-620 0.00379 µM | MOLT-4 0.00527 µM | M14 0.00333 µM | HOP-62 0.00497 µM | CAKI-1 0.00267 µM | MDA-N 0.00471 µM | SN12C 0.00593 µM | UACC-62 0.0201 µM | SF-268 0.00451 µM | ACHN 0.00313 µM | KM12 0.00708 µM | HOP-92 0.0056 µM | NCI-H226 0.00615 µM | HT-29 0.00364 µM | A498 0.00785 µM | CCRF-CEM 0.00935 µM | DU-145 0.00938 µM | NCI-H23 0.0239 µM | SF-539 0.0037 µM | NCI/ADR-RES 0.0254 µM | SK-MEL-5 0.0128 µM

CC(=O)NC(C)(C)C1CC=C(C)CC1 (stereo not drawn)
inactive: OVCAR-5 > 100 µM | Hs-578T > 100 µM | HCC 2998 > 100 µM | BT-549 > 100 µM | UO-31 > 100 µM | K562 > 100 µM | OVCAR-8 > 100 µM | RPMI-8226 > 100 µM | U-251 > 100 µM | EKVX > 100 µM | HCT-116 > 100 µM | A549 > 100 µM | HL-60 > 100 µM | LOX IMVI > 100 µM | SR > 100 µM | SNB-19 > 100 µM | TK-10 > 100 µM | OVCAR-4 > 100 µM | NCI-H460 > 100 µM | IGROV-1 > 100 µM | PC-3 > 100 µM | COLO 205 > 100 µM | SK-OV-3 > 100 µM | MDA-MB-231 > 100 µM | MDA-MB-435 > 100 µM | 786-0 > 100 µM | SNB-75 > 100 µM | Malme-3M > 100 µM | RXF 393 > 100 µM | UACC-257 > 100 µM | SK-MEL-28 > 100 µM | MCF7 > 100 µM | OVCAR-3 > 100 µM | SF-295 > 100 µM | SW-620 > 100 µM | MOLT-4 > 100 µM | M14 > 100 µM | HOP-62 > 100 µM | CAKI-1 > 100 µM | MDA-N > 100 µM | SN12C > 100 µM | UACC-62 > 100 µM | SF-268 > 100 µM | ACHN > 100 µM | KM12 > 100 µM | NCI-H226 > 100 µM | HT-29 > 100 µM | A498 > 100 µM | CCRF-CEM > 100 µM | DU-145 > 100 µM | NCI-H23 > 100 µM | SF-539 > 100 µM | NCI/ADR-RES > 100 µM | SK-MEL-5 > 100 µM
> 100 µM: HCT-15

O=c1[nH]cc(NCCCl)c(=O)[nH]1
> 100 µM: HCT-15
inactive: NCI-H522 > 100 µM | OVCAR-5 > 100 µM | HCC 2998 > 100 µM | BT-549 > 100 µM | UO-31 > 100 µM | K562 > 100 µM | OVCAR-8 > 100 µM | RPMI-8226 > 100 µM | U-251 > 100 µM | SK-MEL-2 > 100 µM | EKVX > 100 µM | HCT-116 > 100 µM | A549 > 100 µM | LOX IMVI > 100 µM | SNB-19 > 100 µM | TK-10 > 100 µM | OVCAR-4 > 100 µM | NCI-H460 > 100 µM | IGROV-1 > 100 µM | PC-3 > 100 µM | COLO 205 > 100 µM | SK-OV-3 > 100 µM | MDA-MB-231 > 100 µM | MDA-MB-435 > 100 µM | 786-0 > 100 µM | SNB-75 > 100 µM | Malme-3M > 100 µM | RXF 393 > 100 µM | UACC-257 > 100 µM | SK-MEL-28 > 100 µM | MCF7 > 100 µM | OVCAR-3 > 100 µM | SF-295 > 100 µM | SW-620 > 100 µM | MOLT-4 > 100 µM | M14 > 100 µM | HOP-62 > 100 µM | CAKI-1 > 100 µM | MDA-N > 100 µM | SN12C > 100 µM | UACC-62 > 100 µM | SF-268 > 100 µM | ACHN > 100 µM | KM12 > 100 µM | HOP-92 > 100 µM | NCI-H226 > 100 µM | HT-29 > 100 µM | A498 > 100 µM | CCRF-CEM > 100 µM | DU-145 > 100 µM | NCI-H23 > 100 µM | SF-539 > 100 µM | NCI/ADR-RES > 100 µM | SK-MEL-5 > 100 µM | T47D > 100 µM

COc1ccn(CC(=O)c2cc3ccccc3[nH]2)c(=O)n1
inactive: NCI-H522 > 100 µM | OVCAR-5 > 100 µM | HCC 2998 > 100 µM | BT-549 > 100 µM | UO-31 > 100 µM | K562 > 100 µM | OVCAR-8 > 100 µM | RPMI-8226 > 100 µM | U-251 > 100 µM | SK-MEL-2 > 100 µM | EKVX > 100 µM | HCT-116 > 100 µM | A549 > 100 µM | HL-60 39.2 µM | LOX IMVI > 100 µM | SNB-19 > 100 µM | TK-10 > 100 µM | OVCAR-4 > 100 µM | NCI-H460 > 100 µM | IGROV-1 > 100 µM | PC-3 > 100 µM | COLO 205 > 100 µM | SK-OV-3 > 100 µM | MDA-MB-231 > 100 µM | MDA-MB-435 > 100 µM | 786-0 > 100 µM | SNB-75 > 100 µM | Malme-3M > 100 µM | RXF 393 > 100 µM | UACC-257 > 100 µM | SK-MEL-28 > 100 µM | MCF7 > 100 µM | OVCAR-3 > 100 µM | SF-295 > 100 µM | SW-620 > 100 µM | MOLT-4 > 100 µM | M14 > 100 µM | HOP-62 > 100 µM | CAKI-1 > 100 µM | MDA-N > 100 µM | SN12C > 100 µM | UACC-62 > 100 µM | SF-268 > 100 µM | ACHN > 100 µM | KM12 > 100 µM | HOP-92 49.7 µM | NCI-H226 > 100 µM | HT-29 > 100 µM | A498 > 100 µM | CCRF-CEM > 100 µM | DU-145 > 100 µM | NCI-H23 > 100 µM | SF-539 > 100 µM | NCI/ADR-RES > 100 µM | SK-MEL-5 > 100 µM | T47D > 100 µM
> 100 µM: HCT-15

O=c1c2cc(I)ccc2nc(-c2cccs2)n1-c1ccc(O)cc1
12.4 µM: HCT-15
active: UACC-257 < 0.01 µM | SF-539 < 0.01 µM
inactive: NCI-H522 13.1 µM | OVCAR-5 15.5 µM | HCC 2998 16.1 µM | BT-549 14.5 µM | UO-31 10.4 µM | K562 24.2 µM | OVCAR-8 15.5 µM | RPMI-8226 3.37 µM | U-251 17.9 µM | SK-MEL-2 15.6 µM | EKVX 14.4 µM | HCT-116 14.3 µM | A549 10.2 µM | HL-60 7.82 µM | LOX IMVI 11.6 µM | SR 17.4 µM | SNB-19 16.6 µM | TK-10 10.7 µM | OVCAR-4 12.6 µM | NCI-H460 14.9 µM | IGROV-1 13.5 µM | PC-3 10.6 µM | COLO 205 17.2 µM | MDA-MB-435 12 µM | 786-0 16.3 µM | Malme-3M 5.4 µM | RXF 393 14.8 µM | SK-MEL-28 16 µM | MCF7 11.5 µM | OVCAR-3 9.51 µM | SF-295 12.6 µM | SW-620 22.2 µM | MOLT-4 6.04 µM | M14 15.8 µM | HOP-62 17.5 µM | CAKI-1 17.1 µM | MDA-N 14.6 µM | SN12C 15.5 µM | UACC-62 13.1 µM | SF-268 14.1 µM | ACHN 8.2 µM | KM12 11.2 µM | HOP-92 10.1 µM | NCI-H226 14.4 µM | HT-29 13 µM | DU-145 6.78 µM | NCI-H23 16.7 µM | NCI/ADR-RES 17.8 µM | SK-MEL-5 11.6 µM | T47D 1.56 µM

Reference: ChEMBL document CHEMBL1201862, “PubChem BioAssay data set” (2004)
